“And” between values parts separate entries of the source, which are not always exact repeats. Identical values can stand only once.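 How tested: cells in 96-well plates exposed to compound for 48 hours at five concentrations. At the GI50, growth is halved. TGI denotes the concentration required for complete inhibition of growth.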

Among the test systems are A498 renal; ACHN renal; COLO 205 colon; HCC-2998 colon; HCT-116 colon; HL-60(TB) leukemia; NCI-H226 lung; OVCAR-5 ovarian; RPMI-8226 leukemia; SF-539 CNS.
Holding throughout (experiment): NCI anticancer screen, dose series, 48 h

For the molecule `CCC1=CC2CN(C1)Cc1c([nH]c3ccccc13)[C@@](C(=O)OC)(c1cc3c(cc1OC)N(C)[C@H]1[C@@](O)(C(=O)OC)[C@H](OC(C)=O)[C@]4(CC)C=CCN5CC[C@]31[C@@H]54)C2` (some centres not stated), the GI50 with A498 renal is 14 nM and 17.3 nM; with ACHN renal, 407 nM and 1270 nM; in the assay on COLO 205 colon, 7.63 nM; in the assay with HCC-2998 colon it was 10.8 nM and 16.2 nM; with HCT-116 colon, below 5 nM; in the assay on HL-60(TB) leukemia, below 5 nM. Further, the GI50 is 19800 nM in the assay with NCI-H226 lung; 32.5 nM and 78.5 nM with OVCAR-5 ovarian; 9.31 nM and 41.5 nM in the assay with RPMI-8226 leukemia; 14 nM in the assay with SF-539 CNS. Moreover, the TGI is 326 nM and 151 nM in the assay with A498 renal; 50000 nM and > 100000 nM in the assay with ACHN renal; 50000 nM and > 100000 nM with HCT-116 colon; 9.84 nM and 28.5 nM in the assay on HL-60(TB) leukemia; 50000 nM with NCI-H226 lung; 50000 nM and > 100000 nM in the assay with OVCAR-5 ovarian. Also, the TGI in the assay with SF-539 CNS turned out to be 8440 nM.
Turning to `O=c1c(F)cn(Cc2ccccc2CCl)c(=O)n1Cc1ccccc1CCl`, the GI50 was 1580 nM with A498 renal; 1580 nM in the assay on ACHN renal; 1700 nM in the assay with COLO 205 colon; 2090 nM in the assay on HCC-2998 colon; 1110 nM with HCT-116 colon; 1510 nM in the assay with HL-60(TB) leukemia. In addition, the GI50 in the assay with NCI-H226 lung was 539 nM; in the assay with OVCAR-5 ovarian, 5070 nM; in the assay on RPMI-8226 leukemia, 795 nM; in the assay on SF-539 CNS, 2060 nM. In addition, the TGI in the assay on A498 renal is 5970 nM; in the assay with ACHN renal it was 3040 nM; in the assay with COLO 205 colon it was 3520 nM; with HCC-2998 colon it was 4470 nM; with HCT-116 colon it was 2840 nM; in the assay with HL-60(TB) leukemia, 3630 nM. Also, the TGI came out at 2710 nM with NCI-H226 lung, 11000 nM in the assay on OVCAR-5 ovarian, 8460 nM with RPMI-8226 leukemia and 4730 nM with SF-539 CNS.
For `CNC(=O)c1nn(C)c2c1C(C)(C)Cc1cnc(Nc3ccc(N4CCN(C)CC4)cc3)nc1-2`, the GI50 in the assay on A498 renal is 139 nM; in the assay on ACHN renal it was 424 nM; with COLO 205 colon, 313 nM; in the assay on HCC-2998 colon it was 2470 nM; with HCT-116 colon, 346 nM; with HL-60(TB) leukemia, 695 nM. Also, the GI50 is 958 nM in the assay on NCI-H226 lung, 504 nM in the assay on OVCAR-5 ovarian, 475 nM in the assay on RPMI-8226 leukemia and 1390 nM with SF-539 CNS. Moreover, the TGI with A498 renal was 861 nM; in the assay on ACHN renal it was 8620 nM; in the assay with COLO 205 colon, 3120 nM; in the assay on HCC-2998 colon, above 10000 nM; with HCT-116 colon it was above 9480 nM; in the assay on HL-60(TB) leukemia, above 10000 nM. In addition, the TGI was above 8570 nM with NCI-H226 lung, above 9010 nM in the assay with OVCAR-5 ovarian, above 3980 nM in the assay on RPMI-8226 leukemia and above 6030 nM in the assay on SF-539 CNS.
Turning to `O=C(O)[C@H](c1ccccc1)[C@@H](C(=O)O)c1ccccc1`, the TGI with A498 renal, in the assay on ACHN renal, in the assay on COLO 205 colon, with HCC-2998 colon, with HCT-116 colon and in the assay on HL-60(TB) leukemia was above 100000 nM throughout. In addition, the TGI in the assay with NCI-H226 lung, in the assay on OVCAR-5 ovarian, in the assay with RPMI-8226 leukemia and in the assay with SF-539 CNS was above 100000 nM in each case.
As for `O=C(N/N=C/c1ccccc1O)c1ccccc1`, the GI50 in the assay on A498 renal is 7280 nM; with ACHN renal, 2080 nM; in the assay with COLO 205 colon it was 750 nM; in the assay on HCC-2998 colon, 600 nM; in the assay with HCT-116 colon it was 309 nM; in the assay on HL-60(TB) leukemia, 2320 nM. Besides, the GI50 in the assay with NCI-H226 lung is 1940 nM; in the assay on OVCAR-5 ovarian it was 2500 nM; in the assay with RPMI-8226 leukemia it was 583 nM; in the assay with SF-539 CNS, 3190 nM. The TGI is above 100000 nM in the assay with A498 renal; 54200 nM in the assay on ACHN renal; above 100000 nM in the assay with COLO 205 colon; 8340 nM in the assay with HCC-2998 colon; 5190 nM in the assay with HCT-116 colon; 8050 nM in the assay with HL-60(TB) leukemia. Moreover, the TGI in the assay with NCI-H226 lung is 17400 nM; in the assay on OVCAR-5 ovarian, above 100000 nM; in the assay with RPMI-8226 leukemia it was 8520 nM; in the assay on SF-539 CNS, 66800 nM.
With `C=C1C(=O)O[C@H]2[C@H]1CC/C(C=Nc1c(N)cc(C(F)(F)F)cc1Br)=C\CC[C@@]1(C)O[C@@H]21`, the GI50 is 2030 nM with A498 renal; 1410 nM in the assay on ACHN renal; 1600 nM in the assay on COLO 205 colon; 1830 nM in the assay with HCC-2998 colon; 1110 nM in the assay with HCT-116 colon; 397 nM in the assay on HL-60(TB) leukemia. Further, the GI50 is 2090 nM in the assay on NCI-H226 lung, 1830 nM with OVCAR-5 ovarian, 399 nM with RPMI-8226 leukemia and 1510 nM in the assay on SF-539 CNS. Besides, the TGI in the assay on A498 renal worked out at 4800 nM; with ACHN renal, 2710 nM; with COLO 205 colon, 3160 nM; in the assay on HCC-2998 colon, 3520 nM; with HCT-116 colon it was 2410 nM; in the assay with HL-60(TB) leukemia, 2480 nM. Besides, the TGI in the assay with NCI-H226 lung was determined as 5290 nM; with OVCAR-5 ovarian it was 3750 nM; with RPMI-8226 leukemia, 2370 nM; with SF-539 CNS, 2870 nM.

Source of the values: PubChem BioAssay (NCI).
